Patent US11712481B2, “Lipid nanoparticle formulations” (Acuitas Therapeutics, Inc., priority 2016, dated 2023)

Columns and labels:
[1] = Particle size and polydispersity index by light scattering (Malvern Zetasizer/Nanosizer ZS); format: physicochemical; details: LNP 47.5:10:40.7:1.8
Method: Cationic lipid(s), DSPC, cholesterol and PEG-lipid were solubilized in ethanol at a desired molar ratio (e.g., 50:0 to 10:28.5 to 38.5:1.5 to 1.7 or 47.5:10:40.8:1.7). Lipid nanoparticles (LNP) were prepared at a total lipid to mRNA weight ratio of approximately 10:1 to 30:1. The mRNA was diluted to 0.2 mg/mL in 10 to 50 mM citrate buffer, pH 4. Syringe pumps were used to mix the lipid solution (i.e., LNP components solubilized in ethanol) with the mRNA aqueous solution at a ratio of about 1:5 to 1:3 (vol/vol) with total flow rates above 15 mL/min. The ethanol was then removed and the external buffer replaced with PBS by dialysis. Finally, the lipid nanoparticles were filtered through a 0.2 μm pore sterile filter. Lipid nanoparticle particle size was 55-95 nm diameter, and in some instances approximately 70-90 nm as determined by quasi-elastic light scattering using a Malvern Zetasizer Nano ZS (Malvern, UK).
(§1) LNP's were formulated by an in-line mixing process as described in Example 1. These formulations were prepared such that the mRNA to cationic lipid ratio was held constant (N/P=6.3). The size and polydispersity index data were generated using Malvern Nanosizer ZS. The diameters given are intensity weighted means. Encapsulation was determined using a fluorescent intercalating dye based assay (Ribogreen). […]
(§2) The effect of the proportion of mRNA to total lipid was investigated for a particular standard set of lipid proportions across three representative cationic lipids. LNP's were formulated by an in-line mixing process as described in Example 1. The lipid proportions were held constant at 47.5:10:40.7:1.8 for the cationic lipid, DSPC, Cholesterol and PEG-lipid respectively. The mRNA to lipid ratios are described in terms of the N/P ratio where N represents the moles of cationic lipid and P represents the moles of phosphate present as part of the nucleic acid backbone. Ratios described in this way are independent of the size of the nucleic acid. The size and polydispersity index data were generated using Malvern Nanosizer ZS. The diameters given are intensity weighted means. Encapsulation was determined using a fluorescent intercalating dye based assay (Ribogreen).

[2] = Encapsulation by fluorescent intercalating dye based assay (Ribogreen); format: physicochemical
Method: as §1, §2

[3] = tested on: Photinus pyralis (firefly) luciferase mRNA expression in liver; assay: Luciferase mRNA in vivo evaluation using LNP compositions, liver; details: LNP 47.5:10:40.7:1.8, 1 mg/kg, mice
Method: (§3) Luciferase mRNA in vivo evaluation studies were performed in 6-8 week old female C57BL/6 mice (Charles River) 8-10 week old CD-1 (Harlan) mice (Charles River) according to guidelines established by an institutional animal care committee (ACC) and the Canadian Council on Animal Care (CCAC). Varying doses of mRNA-lipid nanoparticle were systemically administered by tail vein injection and animals euthanized at a specific time point (e.g., 4 hours) post-administration. Liver and spleen were collected in pre-weighed tubes, weights determined, immediately snap frozen in liquid nitrogen and stored at −80° C. until processing for analysis.
For liver, approximately 50 mg was dissected for analyses in a 2 mL FastPrep tubes (MP Biomedicals, Solon Ohio). ¼″ ceramic sphere (MP Biomedicals) was added to each tube and 500 μL of Glo Lysis Buffer—GLB (Promega, Madison Wis.) equilibrated to room temperature was added to liver tissue. Liver tissues were homogenized with the FastPrep24 instrument (MP Biomedicals) at 2×6.0 m/s for 15 seconds. Homogenate was incubated at room temperature for 5 minutes prior to a 1:4 dilution in GLB and assessed using SteadyGlo Luciferase assay system (Promega). Specifically, 50 μL of diluted tissue homogenate was reacted with 50 μL of SteadyGlo substrate, shaken for 10 seconds followed by 5 minute incubation and then quantitated using a CentroXS^3 LB 960 luminometer (Berthold Technologies, Germany). The amount of protein assayed was determined by using the BCA protein assay kit (Pierce, Rockford Ill.). Relative luminescence units (RLU) were then normalized to total μg protein assayed. To convert RLU to ng luciferase a standard curve was generated with QuantiLum Recombinant Luciferase (Promega). For a representative formulation having a combination of two cationic lipids, a four-hour time point was chosen for an efficacy evaluation of the lipid formulation.
(§4) The FLuc mRNA (L-6107) from Trilink Biotechnologies will express a luciferase protein, originally isolated from the firefly, Photinus pyralis. FLuc is commonly used in mammalian cell culture to measure both gene expression and cell viability. It emits bioluminescence in the presence of the substrate, luciferin. This capped and polyadenylated mRNA is fully substituted with 5-methylcytidine and pseudouridine.
LNP's were formulated by an in-line mixing process as described in Example 1. […] The size and polydispersity index data were generated using Malvern Nanosizer ZS. The diameters given are intensity weighted means. Encapsulation was determined using a fluorescent intercalating dye based assay (Ribogreen).

[4] = tested on: Photinus pyralis (firefly) luciferase mRNA expression in spleen; assay: Luciferase mRNA in vivo evaluation using LNP compositions, spleen; details: LNP 47.5:10:40.7:1.8, 1 mg/kg, mice
Method: as §3, §4, §2

[5] = Determination of pKa of formulated lipids (TNS fluorescence assay); format: physicochemical; details: lipids of Formula I, formulated in LNP cationic lipid/DSPC/cholesterol/PEG-lipid 50/10/38.5/1.5 mol % or cationic lipid alone
Method: As described elsewhere, the pKa of formulated cationic lipids is correlated with the effectiveness of LNPs for delivery of nucleic acids (see Jayaraman et al, Angewandte Chemie, International Edition (2012), 51(34), 8529-8533; Semple et al, Nature Biotechnology 28, 172-176 (2010)). A representative preferred range of pKa is ˜5 to ˜7. […] Lipid nanoparticles comprising of cationic lipid/DSPC/cholesterol/PEG-lipid (50/10/38.5/1.5 mol %) or a cationic lipid alone in PBS at a concentration of 0.4 mM total lipid are prepared using the in-line process as described in Example 1. TNS was prepared as a 100 μM stock solution in distilled water. Vesicles were diluted to 24 μM lipid in 2 mL of buffered solutions containing 10 mM HEPES, 10 mM MES, 10 mM ammonium acetate, 130 mM NaCl, where the pH ranged from 2.5 to 11. An aliquot of the TNS solution was added to give a final concentration of 1 μM and following vortex mixing fluorescence intensity was measured at room temperature in a SLM Aminco Series 2 Luminescence Spectrophotometer using excitation and emission wavelengths of 321 nm and 445 nm. A sigmoidal best fit analysis was applied to the fluorescence data and the pKa was measured as the pH giving rise to half-maximal fluorescence intensity.

[6] = N/P 3:1, LNP cationic lipid/DSPC/Cholesterol/PEG-lipid 47.5:10:40.7:1.8

PDI ([1]; N/P 3:1) | Size ([1]; N/P 3:1) [nm] | PDI ([1]; N/P 6:1) | Size ([1]; N/P 6:1) [nm] | PDI ([1]; N/P 12:1) | Size ([1]; N/P 12:1) [nm] | PDI ([1]; N/P 22:1) | Size ([1]; N/P 22:1) [nm] | Encapsulation [2, 6] [%] | Encapsulation ([2]; N/P 6:1, LNP 47.5:10:40.7:1.8) [%] | Encapsulation ([2]; N/P 12:1, LNP 47.5:10:40.7:1.8) [%] | Encapsulation ([2]; N/P 22:1, LNP 47.5:10:40.7:1.8) [%] | Compound | Liver Luc Activity ([3]; N/P 3:1) [ng/g] | Liver Luc Activity ([3]; N/P 6:1) [ng/g] | Liver Luc Activity ([3]; N/P 12:1) [ng/g] | Liver Luc Activity ([3]; N/P 22:1) [ng/g] | Spleen Luc Activity ([4]; N/P 3:1) [ng/g] | Spleen Luc Activity ([4]; N/P 6:1) [ng/g] | Spleen Luc Activity ([4]; N/P 12:1) [ng/g] | Spleen Luc Activity ([4]; N/P 22:1) [ng/g] | further results
0.072 | 86 | 0.028 | 81 | 0.026 | 75 | 0.039 | 81 | 94 | 96 | 98 | 99 | CCCCCCCCC(CCCCCC)C(=O)OCCCCCCN(CCCCCCOC(=O)C(CCCCCC)CCCCCCCC)CCN(C)C (stereo not shown) [Compound I-5] | 7689 | 9509 | 12826 | 14538 | 188 | 236 | 184 | 247 | 
 |  |  |  |  |  |  |  |  |  |  |  | CCCCCCCCCCCCC(CCCCCCCCCC)C(=O)OCCCCCCN(CCCCCCOC(=O)C(CCCCCCCCCC)CCCCCCCCCC)CCN(C)C (stereo not shown) [Compound I-39] |  |  |  |  |  |  |  |  | pKa [5]: 5.82
0.054 | 94 | 0.033 | 88 | 0.014 | 84 | 0.017 | 84 | 92 | 95 | 98 | 98 | CCCCCCCCC(=O)N(CCCN(C)C)C(CCCCCCCCC(=O)OCC(CCCC)CCCCCC)CCCCCCCCC(=O)OCC(CCCC)CCCCCC (stereo not shown) [II-9] | 6727 | 12209 | 18330 | 12634 | 831 | 642 | 514 | 439 | 
0.089 | 87 | 0.068 | 74 | 0.074 | 65 | 0.083 | 57 | 75 | 86 | 91 | 94 | CCCCCCC(CCCC)C(=O)OCCCCCCCCCN(CCCO)CCCCCCCCCOC(=O)C(CCCC)CCCCCC (stereo not shown) [III-45] | 13308 | 15395 | 16596 | 16005 | 410 | 356 | 243 | 353 | 
